Test results as given in US8637573B2 (Iasomai AB, priority 2009, dated 2014).

Assays:
[1] = tested on: Ki-67; test: Ki-67 immunohistochemistry (labeling index) in cysts from mice; assay type: in vivo, BALB/C mice; settings: 44 mg/kg/day, 21 days
Method: (§1) The day after the endometrial implant, mice of the treatment group were subjected to gavage with 100 [mu] […] The control group only received water. […] At the end of treatment, mice were killed through cervical dislocation.
(§2) Formalin-fixed samples were paraffin-embedded and tissue sections (5 [mu] [iota] [eta] thick) were stained using haematoxylin-eosin. All slides were evaluated by an experienced pathologist who was blind to the study and the histological diagnosis of endometriosis was based on the morphological identification of endometrial glandular tissue and stroma.
(§3) For immunohistochemistry, sections were deparaffinized and rehydrated in graded ethanol. For antigen retrieval, sections were microwaved for 6 min in 0.1 M citrate buffer (pH 6.0) and endogenous peroxidase activity was blocked by a 20 min incubation in 3% H202/methanol. Sections were rinsed in PBS/TritonX-100, immersed for 15 min in PBS-bovine serum albumin (BSA) 1% to block unspecific binding sites, and then incubated with the selected primary antibody diluted in PBS-BSA 1%. […] The quantification of Ki-67 expression was carried out in a blind fashion by two independent observers; each observer counted at least 200 cells in more than 10 randomly chosen fields for each sample and the Ki-67 labeling index was expressed in percentage.

[2] = tested on: P21 (cdkn1a); test: RT-PCR of P21 gene expression in cysts from mice; assay type: in vivo, BALB/C mice; settings: 44 mg/kg/day, 21 days
Method: as §1
Total RNA was isolated by lysing the frozen endometrial cysts with TissueLyser (QIAGEN, Milan, Italy) using TRIzol Reagent (Invitrogen, Milan, Italy) according to the manufacturer's instructions. One microgram of total RNA from each sample was treated with 1 U of DNAse I (Invitrogen) and reverse transcribed with 200 U of Superscript III Reverse Transcriptase (Invitrogen), using 250 ng of random primers in 20 [mu] l of final volume. […]
First, the ratio between the sample and the housekeeping gene was calculated by simultaneous amplification of gene-specific mRNA and 18S RNA in a single reaction tube. Since this procedure was not successful for all samples—likely due to the relative small number of specific transcripts thus of a preferential amplification of 18S mRNA—to prevent quantitative inaccuracies deriving from competitive effects, the target genes and 18 S cDNA generated in the same RT reaction were amplified in separate tubes. […] Semi quantitative PCR was performed in a 25 [mu] […] The densitometric analyses of the PCR products were performed using an image software Quantity One (VersaDOC, Bio-Rad).

[3] = Preliminary clinical study: side effects, pregnancy and other observations; assay type: in vivo, women
Text: (§4) From February 2008 to July 2010, 64 women diagnosed for ovaric endometriosis were enrolled in the study, with a mean age of 35+−7 years (+−SD). […] All of them presented one or more cysts at one or both ovaries.
(§5) 1995; 4:245-51), the suspension of the treatment for about half of each week warrants an optimal biological response in a lengthy treatment, e.g. two to six months or longer.
(§6) Pain symptoms intensity (VAS pain scale) and the size of the ovarian endometriomas (clinical and US exams) were evaluated after the first three months of treatment. If necessary, laparoscopic treatment was performed after 3 months.

[4] = tested on: E-cadherin; test: Immunohistochemical detection of E-cadherin in cysts from mice; assay type: in vivo, BALB/C mice; settings: 44 mg/kg/day, 21 days, controls: diffused all over cell cytoplasm
Method: as §1, §2, §3

[5] = tested on: Cox-2 protein; test: Immunohistochemical detection of Cox-2 protein in cysts from mice; assay type: in vivo, BALB/C mice; settings: 44 mg/kg/day, 21 days
Method: as §1, §2, §3

[6] = cited from earlier work
[7] = Preliminary clinical study: pain intensity by 10-points visual analogue scale (VAS); assay type: in vivo, women; settings: NAC-treated patients, 10-points VAS
Method: (§7) Before treatment, the intensity of pain symptoms was measured by the means of a 10 points visual analogue scale (VAS) and the characteristics of the ovarian endometriomas by transvaginal ultrasounds. During NAC treatment, other treatments are excluded with the exception of analgesic to treat pain, when needed. Patients.
as §4, §5, §6
Pain perception was also modified after NAC treatment. Pain was evaluated, before and after the three-months treatment, by a 10-points visual analogue scale (VAS) with zero representing no pain and 10 representing the worst imaginable pain. Intensity of symptoms were classified as none (0), mild (1-4), moderate (5-7), or severe (8-10). NAC-treated patients reported an average pain reduction, from 7.6+−0.3 to 5.1+−0.8 (p<0.01) after three months of treatment.

[8] = tested on: endometriotic lesions; test: Murine model of endometriosis: growth (total weight) of endometriotic lesions; assay type: in vivo, BALB/C mice; settings: mice, gavage 44 mg/kg/day daily for 21 days; n=10 vs n=10; p<0.05
Method: 36 female, 6 to 8 weeks-old BALB/C mice were purchased from Charles River Italia (Calco, Italy). Pellet food (enriched standard diet; Mucedola, Milan, Italy) and water were provided ad libitum. Animals were kept on a light/dark cycle of 16/8 hours under controlled conditions. Prior to any invasive procedure, the mice were anaesthetized by intraperitoneal injection of 0.4 ml of a physiological solution containing 2.5% AVERTIN.
Induction of endometriosis was performed following the method described in Somigliana et al, Hum Reprod 1999 December; 14(12):2944-50. Surgical interventions were performed under clean conditions. Briefly, uterine horns of syngenic mice were removed through a small midline incision into the peritoneal space, just below the umbilicus, and put into a Petri dish containing phosphate-buffered saline (PBS). Endometrial fragments were obtained by finely chopping uterine horns by using a razor blade. Fragments were suspended in 0.6 ml of PBS and rapidly inoculated into the peritoneal cavity of recipient mice with a ratio of one donor to two recipients. The endometriosis-induced mice were randomly divided into two groups of 12 mice each: control and NAC-treatment. […]
At the end of the treatment, animals were sacrificed and endometriotic lesions were carefully excised from the surrounding tissue, their total weight and number was assessed. […]

[9] = Toxicity observation in the murine endometriosis model; assay type: in vivo; settings: mice, 44 mg/kg/day by gavage, 21 days
Text: as §1

[10] = tested on: vaginal hyperalgesia; test: Experimentally induced endometriosis in rats: escape response to vaginal distention (vaginal hyperalgesia); assay type: in vivo, Sprague-Dawley rats; settings: 60 mg/kg/day, 8 weeks, 0.5 ml distension volume
Method: 16 adult virgin female Sprague-Dawley rats were used. They weighed 200-230 g at the start of the study and were housed individually in a temperature-controlled room in plastic cages lined with bedding. The rats had ad libitum access to water and rat chow and were maintained on a 12-h light/dark cycle, with lights on at 07:00. Reproductive status (proestrus, estrus, metestrus, and diestrus) was determined by daily vaginal lavage performed. Prior to induction of endometriosis rats were trained to perform an escape response to terminate vaginal distention produced by an inflatable latex balloon. A small uninflated latex balloon was tied to a thin catheter lubricated before being inserted into the mid-vaginal canal. Inflating the balloon with different volumes of air distended the vaginal canal. The pressure produced by each volume of distention was control measured through a small-volume pressure transducer. The testing apparatus was a small cylindrical plexiglass chamber designed to contain the rat just enough to prevent her from turning around. An opening in the rear of the chamber allowed the catheter attached to the vaginal stimulator to be connected to a stimulus apparatus. A photosensor determined the position of the rat in the chamber. If the rat extended, as part of an escape response, the light beam was broken and the stimulus was terminated. The rats were adopted to the testing chamber by placing it in the chamber for 15 min daily for 5 days. The rats were then, during training sessions, accustomed to a mechanical escape response to deflate vaginal distension, which involved the rat extending her head to interrupt the light beam. […] Time to response and escape responses were measured as a function of distention volume for each session, as described in Cason A M et al (Horm Behav. (2003), Vol. 44, pages 123-31). […] For each rat, the escape responses and pressures/volumes for all of that rat's sessions (at least 12 sessions) were combined, and the mean values calculated. […] The escape response to terminate vaginal distention, as described above, was assessed after 8 weeks.

[11] = tested on: ovarian endometriomas; test: Preliminary clinical study: size of ovarian endometriomas by ultrasound; assay type: in vivo; settings: women
Method: Women with a first diagnosis of endometriosis, based on pain and on ovarian ultrasound evidence of the disease, and patients with a recurrence of pain and/or ovarian endometrioma after laparoscopic treatment were enrolled in the study,
as §7, §4, §5, §6

CC(=O)N[C@@H](CS)C(=O)O [NAC, N-acetyl-L-cysteine]
reduction in proliferating cells (Ki-67) relative to control mice ([1]; 8 animals per group): 54%
Labeling index for Ki-67 with standard error ([1]; n = 8 × 5, p < 0.01): 0.87 ± 0.11%
P21 gene expressed, number of examined NAC-treated samples ([2]; never expressed in the 5 controls): 3 of the 5
P21 observed, percent of NAC-treated animals ([2]; not expressed in controls): 60%
cases of pregnancy ([3]; NAC-treated women, no statistical significance attributed): three
bleeding during laparoscopy after NAC treatment ([3]; anecdotic observation by surgeon, endometrioma more regular and compact): relevant reduction in bleeding
recto-vaginal septum nodule ([3]; one additional case): disappeared
adverse side effects ([3]; women, 1.8 g NAC per day, three days each week, three months): No adverse side effects
E-cadherin localisation in cysts [4]: mainly detected along cell-cell junctions
Cox-2 protein immunohistochemical staining relative to cysts from control mice [5]: quite a decreased staining
time to peak concentration in plasma ([6]; in vivo): about one
time to total clearance ([6]; in vivo): six and twelve
half-life ([6]; plasma): about three
average pain (VAS) after three months of treatment ([7]; 1.8 g per day three days each week, p<0.01): 5.1+−0.8
average pain (VAS) before treatment ([7]; baseline): 7.6+−0.3
total weight of endometriotic lesions vs controls [8]: significant weight reduction
body weight at the end of treatment [9]: unchanged
relative reduction in escape response in relation to sham treated group ([10]; daily NAC treatment): 18%
relative reduction in escape response in relation to sham treated group ([10]; intermittent NAC treatment (5 days and 2 days rest)): 28%
relative reduction in escape response in relation to sham treated group ([10]; pulsed NAC treatment (every other day)): 32%
cases with a decrease in cyst size (maximum diameter by ultrasound) ([11]; 1.8 g NAC per day, three consecutive days each week, three months, controls less than 10%): 38%
patients who decided to cancel or postpone the programmed laparoscopy ([11]; NAC treatment three months): 21 out of 33
